Values of other authors as cited in US11352671B2, “Predicting therapeutic response in Parkinson's disease” (Vanderbilt University, priority 2015, dated 2022).

Conditions: in vivo

## N[C@@H](Cc1ccc(O)c(O)c1)C(=O)O [levodopa]
  share that crosses the blood-brain barrier: 5-10%
